Laboratory results: patent EP4559463A1, “EDARAVONE OR ITS SALTS FOR USE IN THE TREATMENT OF OXIDATIVE STRESS-MEDIATED NEURODEGENERATIVE DISORDERS” (Ferrer Internacional, S.A., priority 2023, dated 2025)
Entries after “also recorded” stand apart in the source; their conditions may differ. Read-outs that look alike come from different tables or passages of the source.

Tests used:
beagle dogs = conditions: continuous edaravone infusion; cited from earlier work
dogs [1] = conditions: cited from earlier work
[2] = system: patients with Amyotrophic Lateral Sclerosis (ALS); assay: Nerve Conduction Study (NCS) within the clinical study; format: in vivo, human; conditions: for Sural-Radial Amp Ratio (SRAR), Shift from Baseline: Low to Low / Sural-Radial Amp Ratio (SRAR), Shift from Baseline: Low to Normal / Sural-Radial Amp Ratio (SRAR), Shift from Baseline: Normal to Low / Sural-Radial Amp Ratio (SRAR), Shift from Baseline: Normal to Normal / Sural nerve - SNAP Amp, Shift from Baseline: Low to Low / Sural nerve - SNAP Amp, Shift from Baseline: Low to Normal / Sural nerve - SNAP Amp, Shift from Baseline: Normal to Low / Sural nerve - SNAP Amp, Shift from Baseline: Normal to Normal: blinded pool edaravone/placebo 2:1
Description: A centralized evaluation was performed by neurophysiologists to avoid any bias between sites and to guarantee the safety of patients. The NCS was initially performed for the first 60 enrolled patients at screening, and on weeks 4, 12, and 24. […] NCS main criteria for neuropathy are decreased sural nerve SNAP (sensory nerve action potential) amplitudes or decreased sural/radial nerve amplitude ratio (SRAR), although all data is assessed globally. […] The fact that most of the patients show no change in these values, i.e., that they start with 'normal' and remain 'normal' is a sign of lack of neurotoxicity of the treatment. The appearance of neuropathy may also occur at the normal population for other causes such as diabetes or alcoholism, totally unrelated to any treatment. The NCS protocol evaluates the sensory nerve action potential (SNAP) amplitudes using standard ring-electrodes and predefined sites for both stimulus (antidromic) and recording sites, including standardized distances that also apply for the inter-electrode distances. […] These measures eliminate any unwanted variation due to instrumentational differences. NCS data is evaluated independently at a single specialized unit taking into account reference values provided by participating sites and using age-adjusted reference values. Recordings can be performed on a standard type of electromyograph (EMG) equipment (e.g., Natus Nicolet EDX, Nicolet Viking, Dantec Keypoint, TECA Synergy, Cadwell). The following steps were followed to perform the NCS assessment: • Recording and documentation of temperature at start of the assessment at hand and foot respectively. Limb temperature should be ≥ 31°C, otherwise warming may be considered or alternatively accepted correction factor for decreased temperature could be done. • Unilateral recording of sensory responses of the following nerves (hand, followed by lower limb) was carried out: • ∘ Median nerve (hand, dig II). The distance from the stimulus and recording electrode should be recorded. • ∘ Ulnar nerve (hand, dig V). The distance from the stimulus and recording electrode should be recorded. • ∘ Radial nerve (back of the hand). A standardized distance stimulus-recording electrode of 12 cm should be used. • ∘ Sural nerve (leg, lateral malleolus). A standardized distance stimulus-recording electrode of 12 cm should be used. • Recording of sensory responses were carried out using standardized sides (left or right) for stimulation (assessments were performed on one side only, the same side for each subject was used throughout the study). Electrodes were placed at an interelectrode distance of 2 cm. […] For each nerve, sensory nerve action potential (SNAP) amplitudes were evaluated. Antidromic stimulus were provided to the subjects. Required quality of the NCS included: optimization of the recordings, ensuring flat base line without a slope, omitting stimulus artifacts and background noise, so that markers could be placed appropriately, and true SNAP amplitude values could be obtained accurately. The NCS Ranges of normality considered for this clinical study for SNAP Amp (sensory nerve action potential amplitude) and SCV (sensory conduction velocity) are shown below: Table 4 Normal values for the sensory nerve action potential amplitude (SNAP Amp) for the sural nerve are values higher than 8 µV for subjects with less than 40 years of age, higher than 5 µV for subjects with 40-60 years of age, and higher than 2 µV for subjects with more than 60 years of age. Normal values for the sural-radial Amp ratio (SRAR) are values higher than 0.45 for subjects with 18-39 years, higher than 0.32 for subjects with 40-59 years and higher than 0.19 for subjects with 60 or more years of age.

[3] = Vitamin B6 monitoring (plasma pyridoxal 5'-phosphate) within the clinical study; format: in vivo, human; set-up: Plasma vitamin B6 (pyridoxal 5'-phosphate), Change from baseline, Median / Plasma vitamin B6 (pyridoxal 5'-phosphate), Change from baseline, Mean: unit not given here; conditions: for Plasma vitamin B6 (pyridoxal 5'-phosphate), Observed value, Median / Plasma vitamin B6 (pyridoxal 5'-phosphate), Observed value, Mean: no unit in table
Description: Therefore, potential neurotoxicity by NCS assessment and by PLP levels during the conduct of the current study was monitored.
Plasmatic concentration of vitamin B6 was monitored at each visit. The normal range of plasma concentration of vitamin B6 in humans (measured as pyridoxal 5'-phosphate) is […], values below this range are considered 'low' and values above, 'high'. In the inclusion visit at time zero patients were classified as 'normal', 'low' or 'high' and the change of this classification was assessed at each visit.
The fact that most of the patients show no change in the classification as 'normal', 'low', or 'high' during the study is a sign of low neurotoxicity of the product. This is the case for patient showing no shift from baseline, for instance 'Normal to Normal' patients.

monkeys = conditions: continuous i.v. infusion of 1000 mg/kg/day, 28 days; cited from earlier work
dogs [4] = conditions: continuous i.v. infusion, cited from earlier work
[5] = system: patients with Amyotrophic Lateral Sclerosis (ALS); assay: Clinical assessment of neuropathy in the clinical study of edaravone granules for oral solution; format: in vivo, human
Description: A clinical study was started to investigate the efficacy and safety of 100 mg of edaravone granules for oral solution (composition shown in table 1 above) in 300 patients with Amyotrophic Lateral Sclerosis (ALS) following treatment for 48 or 72 weeks. The first 100 subjects enrolled will have either 72 weeks of follow-up or have reached an intercurrent event, and the rest (about two thirds of enrolled patients) will be followed up to 48 weeks (or have reached an intercurrent event).
During the treatment, the participants are randomly assigned to receive a daily dose of 100 mg of either edaravone (composition shown in table 1 above) or placebo at a ratio of 2:1 (i.e., two thirds of the patients receive the edaravone formulation and one third receives placebo) for 72 weeks. The study medication, both the placebo and edaravone, is available in single-dose sachets, which must be dissolved in water and taken orally once daily in the morning after a lapse of at least 2 hours from the last meal consumption.
Several authors and regulatory agencies (see for instance EMA/CHMP/290284/2019, page 134) consider that monitoring of the levels of pyridoxal 5'-phosphate (PLP), the active form of vitamin B6, and testing of motor or sensory nerve conduction, such as Nerve Conduction Studies (NCS) described below, should be carried out in order to allow for early detection of neurotoxicity. In addition to this, clinical assessment of neuropathy of patients was carried out by neurologist.
Moreover, the percentage of neuropathy found in patients suffering from other chronic diseases such as diabetes, HIV infection or alcoholism is higher than 20 %. When the blinding of the study is broken, the specific percentages of neuropathy could be linked to the edaravone and placebo arms.

[6] = Visit 1 (Baseline, before treatment), N=163
[7] = Visit 2 (Week 4), N=159, blinded pool edaravone/placebo 2:1
[8] = Visit 3 (Week 12), n=109, blinded pool edaravone/placebo 2:1
[9] = Visit 4 (Week 24), n=59, blinded pool edaravone/placebo 2:1
[10] = Visit 5 (Week 36), n=12, blinded pool edaravone/placebo 2:1

Plasma vitamin B6 (pyridoxal 5'-phosphate), Observed value, Median ([3]; Screening (before treatment), n=182): 41.50
Plasma vitamin B6 (pyridoxal 5'-phosphate), Observed value, Mean ([3]; Screening (before treatment), n=182, normal range 12-128 ng/L): 74.90
Plasma vitamin B6 (pyridoxal 5'-phosphate), Observed value, Mean [3, 6]: 76.6
Plasma vitamin B6 (pyridoxal 5'-phosphate), Observed value, Median [3, 6]: 41.0
Plasma vitamin B6 (pyridoxal 5'-phosphate), Change from baseline, Mean [3, 7]: 0.5
Plasma vitamin B6 (pyridoxal 5'-phosphate), Change from baseline, Median [3, 7]: 2.0
Plasma vitamin B6 (pyridoxal 5'-phosphate), Observed value, Mean [3, 7]: 77.10
Plasma vitamin B6 (pyridoxal 5'-phosphate), Observed value, Median [3, 7]: 43.0
Plasma vitamin B6 (pyridoxal 5'-phosphate), Change from baseline, Mean [3, 8]: -6.8
Plasma vitamin B6 (pyridoxal 5'-phosphate), Change from baseline, Median [3, 8]: 2.0
Plasma vitamin B6 (pyridoxal 5'-phosphate), Observed value, Mean [3, 8]: 69.80
Plasma vitamin B6 (pyridoxal 5'-phosphate), Observed value, Median [3, 8]: 43.0
Plasma vitamin B6 (pyridoxal 5'-phosphate), Change from baseline, Mean [3, 9]: -0.7
Plasma vitamin B6 (pyridoxal 5'-phosphate), Change from baseline, Median [3, 9]: 4.0
Plasma vitamin B6 (pyridoxal 5'-phosphate), Observed value, Mean [3, 9]: 75.9
Plasma vitamin B6 (pyridoxal 5'-phosphate), Observed value, Median [3, 9]: 45.0
Plasma vitamin B6 (pyridoxal 5'-phosphate), Change from baseline, Mean [3, 10]: 19.2
Plasma vitamin B6 (pyridoxal 5'-phosphate), Change from baseline, Median [3, 10]: 33.5
Plasma vitamin B6 (pyridoxal 5'-phosphate), Observed value, Mean [3, 10]: 95.8
Plasma vitamin B6 (pyridoxal 5'-phosphate), Observed value, Median [3, 10]: 74.5
patients showing clinical signs of neuropathy ([5]; 313 randomized patients, blinded pool edaravone/placebo 2:1, 100 mg oral once daily, treated 6 months to one year and 7 months): 2.2%
number of patients showing clinical signs of neuropathy ([5]; out of 313 randomized patients, blinded pool edaravone/placebo 2:1, treated 6 months to one year and 7 months): 7
Structure (SMILES): CC1=NN(c2ccccc2)C(=O)C1 [edaravone, 5-methyl-2-phenyl-4H-pyrazol-3-one]
plasma levels of vitamin B6 (beagle dogs): decreasing plasma levels of vitamin B6
levels of pyridoxal 5'-phosphate (PLP) (dogs [1]; continuous i.v. infusions of 1000 mg/kg/day): reduced
onset of the axonal nerve fibre degenerations (dogs [1]; continuously infused i.v. dose 120 mg/kg/day): 15 days
onset of the axonal nerve fibre degenerations (dogs [1]; continuously infused i.v. dose 300 mg/kg/day): 11 days
Sural-Radial Amp Ratio (SRAR), Shift from Baseline: Low to Low ([2]; Visit 2 (Week 4), N=165): 9 (5.5) n (%)
Sural-Radial Amp Ratio (SRAR), Shift from Baseline: Low to Normal ([2]; Visit 2 (Week 4), N=165): 8 (4.8) n (%)
Sural-Radial Amp Ratio (SRAR), Shift from Baseline: Normal to Low ([2]; Visit 2 (Week 4), N=165): 6 (3.6) n (%)
Sural-Radial Amp Ratio (SRAR), Shift from Baseline: Normal to Normal ([2]; Visit 2 (Week 4), N=165): 142 (86.1) n (%)
Sural nerve - SNAP Amp, Shift from Baseline: Low to Low ([2]; Visit 2 (Week 4), N=167): 3 (1.8) n (%)
Sural nerve - SNAP Amp, Shift from Baseline: Low to Normal ([2]; Visit 2 (Week 4), N=167): 0 (0.0) n (%)
Sural nerve - SNAP Amp, Shift from Baseline: Normal to Low ([2]; Visit 2 (Week 4), N=167): 2 (1.2) n (%)
Sural nerve - SNAP Amp, Shift from Baseline: Normal to Normal ([2]; Visit 2 (Week 4), N=167): 162 (97.0) n (%)
Sural-Radial Amp Ratio (SRAR), Shift from Baseline: Low to Low ([2]; Visit 3 (Week 12), N=112): 5 (4.5) n (%)
Sural-Radial Amp Ratio (SRAR), Shift from Baseline: Low to Normal ([2]; Visit 3 (Week 12), N=112): 4 (3.6) n (%)
Sural-Radial Amp Ratio (SRAR), Shift from Baseline: Normal to Low ([2]; Visit 3 (Week 12), N=112): 10 (8.9) n (%)
Sural-Radial Amp Ratio (SRAR), Shift from Baseline: Normal to Normal ([2]; Visit 3 (Week 12), N=112): 93 (83.0) n (%)
Sural nerve - SNAP Amp, Shift from Baseline: Low to Low ([2]; Visit 3 (Week 12), N=115): 2 (1.7) n (%)
Sural nerve - SNAP Amp, Shift from Baseline: Low to Normal ([2]; Visit 3 (Week 12), N=115): 0 (0.0) n (%)
Sural nerve - SNAP Amp, Shift from Baseline: Normal to Low ([2]; Visit 3 (Week 12), N=115): 3 (2.6) n (%)
Sural nerve - SNAP Amp, Shift from Baseline: Normal to Normal ([2]; Visit 3 (Week 12), N=115): 110 (95.7) n (%)
Sural-Radial Amp Ratio (SRAR), Shift from Baseline: Low to Low ([2]; Visit 4 (Week 24), N=59): 4 (6.8) n (%)
Sural-Radial Amp Ratio (SRAR), Shift from Baseline: Low to Normal ([2]; Visit 4 (Week 24), N=59): 1 (1.7) n (%)
Sural-Radial Amp Ratio (SRAR), Shift from Baseline: Normal to Low ([2]; Visit 4 (Week 24), N=59): 4 (6.8) n (%)
Sural-Radial Amp Ratio (SRAR), Shift from Baseline: Normal to Normal ([2]; Visit 4 (Week 24), N=59): 50 (84.7) n (%)
Sural nerve - SNAP Amp, Shift from Baseline: Low to Low ([2]; Visit 4 (Week 24), N=60): 0 (0.0) n (%)
Sural nerve - SNAP Amp, Shift from Baseline: Low to Normal ([2]; Visit 4 (Week 24), N=60): 0 (0.0) n (%)
Sural nerve - SNAP Amp, Shift from Baseline: Normal to Low ([2]; Visit 4 (Week 24), N=60): 3 (5.0) n (%)
Sural nerve - SNAP Amp, Shift from Baseline: Normal to Normal ([2]; Visit 4 (Week 24), N=60): 57 (95.0) n (%)
main criteria for neuropathy: decreased sural nerve SNAP amplitudes or decreased sural/radial nerve amplitude ratio (SRAR) ([2]; at baseline and at different times during the study): not found in most of the patients
plasmatic concentration of vitamin B6 versus baseline ([3]; monitored at each visit): do not show a decrease; also recorded: not reduced from baseline
histological correlate in the central and peripheral nervous system (monkeys): minimal to severe nerve fibre degenerations
motor deficits, time of appearance (monkeys): third and fourth week
onset of dose-dependent impaired motor function (dogs [4]; 300 mg/kg/day): 13 days
onset of dose-dependent impaired motor function (dogs [4]; ≥60 mg/kg/day): 18 days of treatment
finding associated with the loss of motor function (dogs [4]): axonal degeneration of peripheral nerves fibres and in the CNS
percentage of neuropathy in patients compared with normal population ([5]; clinical trial with edaravone, normal population about 8 %): not higher than the percentage found in the normal population
